Data as given in patent US20220106289A1, “NLRP3 INHIBITORS” (INFLAZOME LIMITED, priority 2018, published 2022).
Where a name gives a salt, the structure may show the parent alone.

Assays:
NLRP3 [1] = biological target: T1, NLRP3 (Homo sapiens, UniProt Q96P20); assay: Human whole blood IL-1β release assay (LPS + nigericin, AlphaLisa); assay type: cell-based; parameters: Human whole blood in Li-heparin tubes was obtained from healthy donors; from tissue; host or cells: human whole blood from healthy donors; conditions: NLRP3 inhibitory activity, 1 μg/ml LPS, 10 μM nigericin, read-out: HWB IC50
Method: For systemic delivery, the ability to inhibit NLRP3 when the compounds are present within the bloodstream is of great importance. For this reason, the NLRP3 inhibitory activity of a number of compounds in human whole blood was investigated in accordance with the following protocol. Human whole blood in Li-heparin tubes was obtained from healthy donors from a volunteer donor panel. • 1. […] Incubate for 3 hrs at 37° C., 5% CO2 • 4. Add 10 μl nigericin (Sigma #N7143) (10 μM FAC) to all wells • 5. Incubate for 1 hr at 37° C., 5% CO2 • 6. At the end of the incubation period, spin plates at 300×g for 5 mins to pellet cells and remove 20 μl of supernatant and add to 96-well v-bottom plates for IL-1β analysis (note: these plates containing the supernatants can be stored at -80° C. to be analysed at a later date) • 7. IL-1β was measured according to the manufacturer protocol (Perkin Elmer-AlphaLisa IL-1 Kit A[…]-5000) • 8.

[2] = PK in rats, intravenous administration; assay type: in vivo; conditions: male, Sprague-Dawley, 1 mg/kg; for AUC / half-life: rat plasma; for clearance / Vd: plasma, rat; for Vd: read-out: Vdss
Method: Pharmacokinetic parameters were determined in male Sprague Dawley rats (Charles River, UK, 250-300 g; or Vital River Laboratory Animal Technology Co Ltd, Beijing, China, 7-9 weeks old). Animals were individually housed during the study and maintained under a 12 h light/dark cycle. Animals had free access to food and water, except that orally dosed animals were food deprived overnight prior to the study. For intravenous administration, compounds were formulated as a solution in DMSO:PBS [10:90] in 2 mL/kg dosing volume and administered via tail vein. For oral administration, compounds were formulated as a solution in DMSO:water [10:90] in 5 mL/kg dosing volume and administered orally. Serial blood samples (about 200-230 μL) were taken from each animal at each of 8 time-points post dose (0.083, 0.25, 0.5, 1, 2, 4, 8 and 24 h). Samples were held on ice for no longer than 30 minutes before centrifugation (10,000 rpm (8,385 g) for 3 minutes; or 5,696 rpm (3,000 g) for 15 minutes) for plasma generation. Plasma was frozen on dry ice prior to bioanalysis. PK parameters were generated from LC-MS/MS data using Dotmatics or Phoenix WinNonlin 6.3 software.

NLRP3 [3] = biological target: T1, NLRP3; assay: THP-1 cells pyroptosis assay (LPS + nigericin, resazurin read-out); assay type: cell-based; parameters: Seed THP-1 cells (25,000 cells/well) containing 1.0 μg/ml LPS; host or cells: THP-1 cells; conditions: NLRP3 inhibitory activity, 1 μg/ml LPS, 5 μM nigericin
Outline: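 THP-1 cells in serum-free RPMI were primed with 1 μg/ml LPS and incubated 3 h at 37° C with compound, then given 5 μM nigericin for 1 h. After supernatant removal, viability was read by 100 μM resazurin over 1-2 h at 37° C.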

T1 sequence (Q96P20 whole entry): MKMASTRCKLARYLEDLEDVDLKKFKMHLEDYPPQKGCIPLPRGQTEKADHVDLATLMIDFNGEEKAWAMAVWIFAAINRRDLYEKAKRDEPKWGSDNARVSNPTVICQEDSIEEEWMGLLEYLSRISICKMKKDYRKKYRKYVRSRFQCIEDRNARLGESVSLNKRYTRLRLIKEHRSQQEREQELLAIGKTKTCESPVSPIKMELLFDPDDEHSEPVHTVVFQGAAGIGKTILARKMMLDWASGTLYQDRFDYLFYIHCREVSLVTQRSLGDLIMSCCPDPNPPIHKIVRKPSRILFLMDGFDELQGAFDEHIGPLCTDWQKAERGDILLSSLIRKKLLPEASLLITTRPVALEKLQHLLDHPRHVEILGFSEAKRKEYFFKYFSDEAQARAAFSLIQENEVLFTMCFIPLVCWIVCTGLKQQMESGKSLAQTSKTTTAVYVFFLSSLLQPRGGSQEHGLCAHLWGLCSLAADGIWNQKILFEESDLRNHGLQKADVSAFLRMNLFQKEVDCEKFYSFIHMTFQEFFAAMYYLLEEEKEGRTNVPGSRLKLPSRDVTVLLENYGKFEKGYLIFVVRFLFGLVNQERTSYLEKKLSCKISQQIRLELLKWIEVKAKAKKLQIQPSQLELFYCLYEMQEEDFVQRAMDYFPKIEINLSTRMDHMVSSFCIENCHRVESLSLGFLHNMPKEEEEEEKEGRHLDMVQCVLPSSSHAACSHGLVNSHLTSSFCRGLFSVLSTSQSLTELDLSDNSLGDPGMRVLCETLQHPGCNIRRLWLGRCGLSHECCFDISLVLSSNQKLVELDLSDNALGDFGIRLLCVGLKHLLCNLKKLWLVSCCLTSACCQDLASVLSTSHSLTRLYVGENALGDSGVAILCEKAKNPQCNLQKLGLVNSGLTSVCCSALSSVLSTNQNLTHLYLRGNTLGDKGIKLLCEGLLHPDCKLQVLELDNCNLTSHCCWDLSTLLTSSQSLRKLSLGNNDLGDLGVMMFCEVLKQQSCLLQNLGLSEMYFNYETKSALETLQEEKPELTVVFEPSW

SMILES	IC50 (NLRP3 [1])	AUC [2]	half-life [2]	clearance [2]	Vd [2]	IC50 (NLRP3 [3])
COC1(c2cc(S(=O)(=O)NC(=O)Nc3c4c(cc5c3CCC5)CCC4)nn2C)CCC1 [Example 51, N-((1,2,3,5,6,7-Hexahydro-s-indacen-4-yl)carbamoyl)-5-(1-methoxycyclobutyl)-1-methyl-1H-pyrazole-3-sulfonamide]	250 to 500 nM	4870 ng·h/mL	1 h	3.4 mL/min/kg	0.29 L/kg	< 250 nM
[2H]C([2H])([2H])C([2H])(n1ccc(S(=O)(=O)NC(=O)Nc2c3c(cc4c2CCC4)CCC3)n1)C([2H])([2H])[2H] [Example 20, N-((1,2,3,5,6,7-Hexahydro-s-indacen-4-yl)carbamoyl)-1-(propan-2-yl-d7)-1H-pyrazole-3-sulfonamide, potassium salt]		21600 ng·h/mL	4.7 h	0.8 mL/min/kg	0.25 L/kg	
O=C(Nc1c2c(cc3c1CCC3)CCC2)NS(=O)(=O)c1ccn(C2CCC2)n1 [Example 59, 1-Cyclobutyl-N-((1,2,3,5,6,7-hexahydro-s-indacen-4-yl)carbamoyl)-1H-pyrazole-3-sulfonamide]	1000 to 5000 nM					< 250 nM
CC(C)n1ccc(S(=O)(=O)NC(=O)Nc2cc(Br)ccc2Sc2nnnn2C)n1 [Example 28, N-((5-Bromo-2-((1-methyl-1H-tetrazol-5-yl)thio)phenyl)carbamoyl)-1-isopropyl-1H-pyrazole-3-sulfonamide]	5000 to 10000 nM					1000 to 5000 nM
CC(C)c1cc(F)cc(C(C)C)c1NC(=O)NS(=O)(=O)c1ccn(C(C)C)n1 [Example 77, N-((4-Fluoro-2,6-diisopropylphenyl)carbamoyl)-1-isopropyl-1H-pyrazole-3-sulfonamide, sodium salt]	5000 to 10000 nM					1000 to 5000 nM
CC(C)c1cc(C#N)cc(C(C)C)c1NC(=O)NS(=O)(=O)c1ccn(C(C)C)n1 [Example 72, N-((4-Cyano-2,6-diisopropylphenyl)carbamoyl)-1-isopropyl-1H-pyrazole-3-sulfonamide]	5000 to 10000 nM					1000 to 5000 nM
O=C(Nc1c2c(cc3c1CCC3)C=CC2)NS(=O)(=O)c1cc[nH]n1 [Example 14, N-((1,2,3,5-Tetrahydro-s-indacen-4-yl)carbamoyl)-1H-pyrazole-3-sulfonamide, potassium salt]	5000 to 10000 nM					500 to 1000 nM
COC(C)(C)c1cc(S(=O)(=O)NC(=O)Nc2c(C(C)C)cccc2C(C)C)nn1C [Example 81, N-((2,6-Diisopropylphenyl)carbamoyl)-5-(2-methoxypropan-2-yl)-1-methyl-1H-pyrazole-3-sulfonamide]	250 to 500 nM					250 to 500 nM
Cc1cc(C(C)(C)O)ccc1S(=O)(=O)NC(=O)Cc1c(C(C)C)cc(F)cc1C(C)C [Example 2, 2-(4-Fluoro-2,6-diisopropylphenyl)-N-((4-(2-hydroxypropan-2-yl)-2-methylphenyl)sulfonyl)acetamide, potassium salt]	> 10000 nM					250 to 500 nM
CC(C)c1cc(F)cc(C(C)C)c1CC(=O)NS(=O)(=O)c1ccc(CN(C)C)cc1 [Example 33, N-((4-((Dimethylamino)methyl)phenyl)sulfonyl)-2-(4-fluoro-2,6-diisopropylphenyl)acetamide, 2,2,2-trifluoroacetate salt]	1000 to 5000 nM					1000 to 5000 nM
CC(C)c1cc(F)cc2c1C(C(=O)NS(=O)(=O)c1cc(C(C)(C)O)cs1)CC2(C)C (single isomer, unassigned) [Example 8, 5-Fluoro-N-((4-(2-hydroxypropan-2-yl)thiophen-2-yl)sulfonyl)-7-isopropyl-3,3-dimethyl-2,3-dihydro-1H-indene-1-carboxamide, potassium salt (rotamer P1)]	1000 to 5000 nM					500 to 1000 nM
CC(C)n1ccc(S(=O)(=O)NC(=O)Nc2c3c(cc4c2C(=O)CC4)CCC3)n1 [Example 15, 1-Isopropyl-N-((3-oxo-1,2,3,5,6,7-hexahydro-s-indacen-4-yl)carbamoyl)-1H-pyrazole-3-sulfonamide, potassium salt]	> 10000 nM					1000 to 5000 nM
CC(C)(CN1CCC1)n1ccc(S(=O)(=O)NC(=O)Nc2c3c(cc4c2CCC4)CCC3)n1 [Example 56, 1-(1-(Azetidin-1-yl)-2-methylpropan-2-yl)-N-((1,2,3,5,6,7-hexahydro-s-indacen-4-yl)carbamoyl)-1H-pyrazole-3-sulfonamide]	250 to 500 nM					< 250 nM
CC(C)n1ccc(S(=O)(=O)NC(=O)Nc2c3c(c(Cl)c4c2CCC4)CCC3)n1 [Example 35, N-((8-Chloro-1,2,3,5,6,7-hexahydro-s-indacen-4-yl)carbamoyl)-1-isopropyl-1H-pyrazole-3-sulfonamide]	5000 to 10000 nM					< 250 nM
CC(C)n1ccc(S(=O)(=O)NC(=O)Nc2c3c(c(F)c4c2CCC4)CCC3)n1 [Example 61, N-((8-Fluoro-1,2,3,5,6,7-hexahydro-s-indacen-4-yl)carbamoyl)-1-isopropyl-1H-pyrazole-3-sulfonamide, sodium salt]	500 to 1000 nM					< 250 nM
O=C(Nc1c2c(cc3c1CCO3)CCC2)NS(=O)(=O)c1ccn(C2CC2)n1 [Example 67, 1-Cyclopropyl-N-((3,5,6,7-tetrahydro-2H-indeno[5,6-b]furan-4-yl)carbamoyl)-1H-pyrazole-3-sulfonamide]	1000 to 5000 nM					< 250 nM
C#CCCC1(CCn2ccc(S(=O)(=O)NC(=O)Nc3c4c(cc5c3CCC5)CCC4)n2)N=N1 [Example 16, 1-(2-(3-(But-3-yn-1-yl)-3H-diazirin-3-yl)ethyl)-N-((1,2,3,5,6,7-hexahydro-s-indacen-4-yl)carbamoyl)-1H-pyrazole-3-sulfonamide, potassium salt]	5000 to 10000 nM					< 250 nM
COc1cc(-c2cc(F)cc(C(C)C)c2CCC(=O)NS(=O)(=O)c2ccc(C(C)(C)O)cc2C)ccn1 [Example 3, 3-(4-Fluoro-2-isopropyl-6-(2-methoxypyridin-4-yl)phenyl)-N-((4-(2-hydroxypropan-2-yl)-2-methylphenyl)sulfonyl)propanamide]	> 10000 nM					1000 to 5000 nM
COC1(c2cc(S(=O)(=O)NC(=O)Nc3c4c(cc5c3CCC5)CCC4)nn2C)CCCC1 [Example 52, N-((1,2,3,5,6,7-hexahydro-s-indacen-4-yl)carbamoyl)-5-(1-methoxycyclopentyl)-1-methyl-1H-pyrazole-3-sulfonamide]	500 to 1000 nM					< 250 nM
CC(C)n1cnc(S(=O)(=O)NC(=O)Nc2c3c(cc4c2CCC4)CCC3)n1 [Example 46, N-((1,2,3,5,6,7-Hexahydro-s-indacen-4-yl)carbamoyl)-1-isopropyl-1H-1,2,4-triazole-3-sulfonamide, sodium salt]	500 to 1000 nM	10000 ng·h/mL	4 h	1.7 mL/min/kg	0.45 L/kg	250 to 500 nM
CC(C)c1cc(Cl)c2c(c1NC(=O)NS(=O)(=O)c1ccn(C(C)C)n1)CCC2 [Example 34, N-((7-Chloro-5-isopropyl-2,3-dihydro-1H-inden-4-yl)carbamoyl)-1-isopropyl-1H-pyrazole-3-sulfonamide]	5000 to 10000 nM					250 to 500 nM
CC(C)c1cc(C#N)cc(C(C)C)c1NC(=O)NS(=O)(=O)c1cc(C(C)(C)O)n(C)n1 [Example 71, N-((4-Cyano-2,6-diisopropylphenyl)carbamoyl)-5-(2-hydroxypropan-2-yl)-1-methyl-1H-pyrazole-3-sulfonamide]	1000 to 5000 nM					500 to 1000 nM
CC(C)n1nc(S(=O)(=O)NC(=O)Nc2c3c(cc4c2CCC4)CCC3)cc1C(C)(C)O [Example 49, N-((1,2,3,5,6,7-Hexahydro-s-indacen-4-yl)carbamoyl)-5-(2-hydroxypropan-2-yl)-1-isopropyl-1H-pyrazole-3-sulfonamide]	500 to 1000 nM					< 250 nM
